Results as given in paper PMC7097682, “Safety and Pharmacokinetics of CXCR4 Peptide Antagonist, LY2510924, in Combination with Durvalumab in Advanced Refractory Solid Tumors” (Journal of Pancreatic Cancer, 2020).
Where a SMILES comes first, the peptide text is derived from it. Bridges are numbered along the chain shown (N, C = ends). [ ]: non-standard residue; d: D form. 2Nal = N[C@@H](Cc1ccc2ccccc2c1)C(=O)O; Lys(iPr) = CC(C)NCCCC[C@H](N)C(=O)O

Tests used:
pancreatic cancer model = conditions: added to anti-PD-L1 monoclonal antibody regimen; cited from earlier work
patients = tested on: patients; design: method as in PMID 24727324; conditions: 30 mg/day SC, monotherapy; cited from earlier work
[1] = LY2510924 pharmacokinetics in plasma, noncompartmental analysis; conditions: for AUC(0-inf) / Cmax: n = 3, geometric mean (CV%)
Procedure: (§1) Blood samples were drawn from all patients for the assessment of LY2510924 in plasma and durvalumab concentrations in serum at prespecified time points. The PK of LY2510924 was assessed through intensive sampling, and the PK parameter estimates were calculated by standard noncompartmental methods of analysis. PK data for durvalumab were summarized by sampling time points, and a formal noncompartmental analysis was not conducted. Samples were analyzed using a validated liquid chromatography with tandem mass spectrometry. Summary statistics was tabulated for the PK parameters of LY2510924 and durvalumab by dose and study day.

clinical = conditions: human, in vivo, sc, t1/2
Procedure: as §1

cancer xenograft models = conditions: cell lines that express high levels of CXCR4; cited from earlier work
[2] = tested on: syngeneic squamous cell carcinoma model; conditions: single agent or combination; no reference printed for the sentence; cited from earlier work
[3] = Durvalumab serum concentrations by sampling time point; assay type: in vivo, human
Procedure: as §1

[4] = human, plasma, sc, Day 15, 20 mg/day SC
[5] = human, plasma, sc, Day 15, 30 mg/day SC

c1cc(CN2CCCNCCNCCCNCC2)ccc1CN1CCCNCCNCCCNCC1 [AMD3100]
effect on T cells and antitumor efficacy of anti-PD-L1 monoclonal antibody (pancreatic cancer model): T cell redistribution and rapid accumulation near tumors, enhancing the antitumor efficacy

CC(C)NCCCC[C@H](NC(=O)[C@H]1CCC(=O)N[C@@H](Cc2ccccc2)C(=O)N[C@@H](Cc2ccc(O)cc2)C(=O)N[C@@H](CCCCNC(C)C)C(=O)N[C@H](CCCNC(=N)N)C(=O)N[C@@H](Cc2ccc3ccccc3c2)C(=O)NCC(=O)N1)C(N)=O [LY2510924] (FY[Lys(iPr)][dR][2Nal]G[dE][Lys(iPr)]-NH2; lactam N-7)
patients with dose-limiting toxicity (grade 3 increase in ANC >25,000 cells/μL for >5 days) (patients): two | PK variability on AUC ([1]; 20, 30 and 40 mg daily SC): 69% | PK variability on Cmax ([1]; 20, 30 and 40 mg daily SC): ~60% | mean apparent volume of distribution ([1]; 20, 30 and 40 mg daily SC, all nine patients): 59 L | CL/F ([1]; human, plasma, sc, 40 mg, mean apparent clearance, 20, 30 and 40 mg daily SC, all nine patients): 117 mL/min | AUC(0-inf) [1, 4]: 1960 ng·h/mL | AUC(0-inf) [1, 5]: 4320 ng·h/mL | Cmax ([1]; human, plasma, sc, Day 1, 20 mg/day SC, with durvalumab): 747 ng/mL | Cmax ([1]; human, plasma, sc, Day 1, 30 mg/day SC, with durvalumab): 682 ng/mL | Cmax ([1]; human, plasma, sc, Day 1, 40 mg/day SC, with durvalumab): 1860 ng/mL | Cmax [1, 4]: 367 ng/mL | Cmax [1, 5]: 847 ng/mL | Cmax ([1]; human, plasma, sc, Day 15, 40 mg/day SC): 1680 ng/mL | half-life (clinical): 5.11 h | tumor growth and metastasis (cancer xenograft models): dose-dependent inhibition | antitumor activity [2]: minimal activity

durvalumab: selective, high-affinity, human immunoglobulin G1 monoclonal antibody that blocks PD-L1 binding to PD-1 and CD80
peak concentration, geometric mean ([3]; week 0, 1500 mg Q4W IV infusion over 60 min, n = 8, %CV 33.2%): 418 µg/mL | trough concentration, geometric mean ([3]; week 4, 1500 mg Q4W IV, n = 8, %CV 50.3%): 106 µg/mL | trough concentration, geometric mean ([3]; week 8, 1500 mg Q4W IV, n = 4, %CV 58.4%): 133 µg/mL | peak concentration, geometric mean ([3]; week 12, 1500 mg Q4W IV, n = 4, %CV 30.8%): 549 µg/mL | trough concentration, geometric mean ([3]; week 12, 1500 mg Q4W IV, n = 4, %CV 46.8%): 126 µg/mL | trough concentration, geometric mean ([3]; week 20, 1500 mg Q4W IV, n = 1): 74.9 µg/mL
